Results taken from the supplement of paper PMC10307832.

Compound: C1CN(CCC1C(C2=CC3=C(C=C2)OCO3)(C4=CC5=C(C=C4)OCO5)O)C(=O)OC6=CC=C(C=C6)[N+](=O)[O-] [JZL-184]
Assay: relative viability (nuclei count vs DMSO), 5 days (fraction); higher = more cells survive
Outline: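 Only plates meeting two conditions passed: control CV below 25% and at least one doubling. Lung cancer cell lines, kept overnight at 37 °C in 1536-well plates, were pinned with five library-drug doses (not always all listed) √10 apart on vehicle-anchored plates and grown 5 days without medium change. A one-step fix, permeabilisation and Hoechst stain preceded 4× imaging and MetaXpress nuclear counting. Viability equals treated-well nuclei divided by vehicle-well nuclei, as the median over plates.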

201T
relative viability (0.04 µM): 0.997
relative viability (0.4 µM): 0.992
relative viability (1.265 µM): 1.01
relative viability (4 µM): 0.953

A549
relative viability (0.04 µM): 1.1
relative viability (0.4 µM): 0.928
relative viability (1.265 µM): 1.01
relative viability (4 µM): 0.957

A-427
relative viability (0.04 µM): 1.09
relative viability (0.4 µM): 0.982
relative viability (1.265 µM): 1.12
relative viability (4 µM): 0.948

ABC-1
relative viability (0.04 µM): 0.868
relative viability (0.4 µM): 0.901
relative viability (1.265 µM): 1.09
relative viability (4 µM): 1.15

BEN
relative viability (0.04 µM): 1.1
relative viability (0.4 µM): 0.949
relative viability (1.265 µM): 1.21
relative viability (4 µM): 1.01

CAL-12T
relative viability (0.04 µM): 1.23
relative viability (0.4 µM): 0.856
relative viability (1.265 µM): 1.13
relative viability (4 µM): 0.949

COR-L23
relative viability (0.04 µM): 1.2
relative viability (0.4 µM): 1.06
relative viability (1.265 µM): 1.03
relative viability (4 µM): 0.971

COR-L 105
relative viability (0.04 µM): 1.13
relative viability (0.4 µM): 0.876
relative viability (1.265 µM): 1.1
relative viability (4 µM): 0.812

ChaGo-K-1
relative viability (0.04 µM): 1.12
relative viability (0.4 µM): 0.934
relative viability (1.265 µM): 1.03
relative viability (4 µM): 0.957

EKVX
relative viability (0.04 µM): 1.02
relative viability (0.4 µM): 0.979
relative viability (1.265 µM): 1.04
relative viability (4 µM): 0.927

EMC-BAC-2
relative viability (0.04 µM): 1.05
relative viability (0.4 µM): 0.944
relative viability (1.265 µM): 1.12
relative viability (4 µM): 0.922

EPLC-272H
relative viability (0.04 µM): 1
relative viability (0.4 µM): 0.914
relative viability (1.265 µM): 1.15
relative viability (4 µM): 0.937

H3255
relative viability (0.04 µM): 1.1
relative viability (0.4 µM): 0.871
relative viability (1.265 µM): 1.07
relative viability (4 µM): 0.885

HARA
relative viability (0.04 µM): 0.995
relative viability (0.4 µM): 0.814
relative viability (1.265 µM): 1.05
relative viability (4 µM): 0.831

HCC-15
relative viability (0.04 µM): 1.07
relative viability (0.4 µM): 1.03
relative viability (1.265 µM): 1.08
relative viability (4 µM): 0.978

HCC-44
relative viability (0.04 µM): 1.05
relative viability (0.4 µM): 0.923
relative viability (1.265 µM): 1.06
relative viability (4 µM): 0.983

HCC-78
relative viability (0.04 µM): 0.793
relative viability (0.4 µM): 0.806
relative viability (1.265 µM): 1.13
relative viability (4 µM): 1.01

HCC-366
relative viability (0.04 µM): 1.09
relative viability (0.4 µM): 0.958
relative viability (1.265 µM): 1.06
relative viability (4 µM): 1.02

HCC-827
relative viability (0.04 µM): 1.02
relative viability (0.4 µM): 0.989
relative viability (1.265 µM): 1.02
relative viability (4 µM): 1.04

HOP-62
relative viability (0.04 µM): 1.08
relative viability (0.4 µM): 1.01
relative viability (1.265 µM): 1.04
relative viability (4 µM): 1.01

LC-2-ad
relative viability (0.04 µM): 1.18
relative viability (0.4 µM): 0.96
relative viability (1.265 µM): 1.13
relative viability (4 µM): 0.982

LCLC-97TM1
relative viability (0.04 µM): 1.13
relative viability (0.4 µM): 0.852
relative viability (1.265 µM): 1.05
relative viability (4 µM): 0.84

LCLC-103H
relative viability (0.04 µM): 0.956
relative viability (0.4 µM): 0.988
relative viability (1.265 µM): 1.04
relative viability (4 µM): 0.986

LK-2
relative viability (0.04 µM): 1.13
relative viability (0.4 µM): 0.928
relative viability (1.265 µM): 1.21
relative viability (4 µM): 0.944

LOU-NH91
relative viability (0.04 µM): 1.02
relative viability (0.4 µM): 0.879
relative viability (1.265 µM): 0.984
relative viability (4 µM): 0.945

LU99A
relative viability (0.04 µM): 1.01
relative viability (0.4 µM): 0.774
relative viability (1.265 µM): 1.18
relative viability (4 µM): 0.968

LXF-289
relative viability (0.04 µM): 1.08
relative viability (0.4 µM): 0.926
relative viability (1.265 µM): 1.02
relative viability (4 µM): 0.959

NCI-H23
relative viability (0.04 µM): 1.14
relative viability (0.4 µM): 0.767
relative viability (1.265 µM): 1.18
relative viability (4 µM): 0.998

NCI-H322M
relative viability (0.04 µM): 0.951
relative viability (0.4 µM): 0.926
relative viability (1.265 µM): 0.982
relative viability (4 µM): 0.774

NCI-H358
relative viability (0.04 µM): 1
relative viability (0.4 µM): 0.824
relative viability (1.265 µM): 0.994
relative viability (4 µM): 0.916

NCI-H441
relative viability (0.04 µM): 1.14
relative viability (0.4 µM): 0.814
relative viability (1.265 µM): 1.02
relative viability (4 µM): 0.998

NCI-H460
relative viability (0.04 µM): 1.06
relative viability (0.4 µM): 0.884
relative viability (1.265 µM): 0.974
relative viability (4 µM): 0.975

NCI-H520
relative viability (0.04 µM): 0.793
relative viability (0.4 µM): 0.924
relative viability (1.265 µM): 1.07
relative viability (4 µM): 0.93

NCI-H522
relative viability (0.04 µM): 1.24
relative viability (0.4 µM): 0.896
relative viability (1.265 µM): 1.05
relative viability (4 µM): 0.901

NCI-H596
relative viability (0.04 µM): 1.21
relative viability (0.4 µM): 0.875
relative viability (1.265 µM): 1.01
relative viability (4 µM): 0.932

NCI-H647
relative viability (0.04 µM): 1.04
relative viability (0.4 µM): 0.945
relative viability (1.265 µM): 1.06
relative viability (4 µM): 0.887

NCI-H650
relative viability (0.04 µM): 1.03
relative viability (0.4 µM): 0.762
relative viability (1.265 µM): 1.1
relative viability (4 µM): 0.979

NCI-H661
relative viability (0.04 µM): 1.02
relative viability (0.4 µM): 0.919
relative viability (1.265 µM): 0.943
relative viability (4 µM): 0.999

NCI-H727
relative viability (0.04 µM): 0.949
relative viability (0.4 µM): 0.793
relative viability (1.265 µM): 1.09
relative viability (4 µM): 0.781

NCI-H838
relative viability (0.04 µM): 1.11
relative viability (0.4 µM): 1.03
relative viability (1.265 µM): 1.04
relative viability (4 µM): 0.984

NCI-H1355
relative viability (0.04 µM): 0.984
relative viability (0.4 µM): 0.927
relative viability (1.265 µM): 1.06
relative viability (4 µM): 0.946

NCI-H1395
relative viability (0.04 µM): 0.862
relative viability (0.4 µM): 0.84
relative viability (1.265 µM): 1.03
relative viability (4 µM): 0.816

NCI-H1437
relative viability (0.04 µM): 1.04
relative viability (0.4 µM): 0.948
relative viability (1.265 µM): 1.02
relative viability (4 µM): 0.961

NCI-H1650
relative viability (0.04 µM): 1.07
relative viability (0.4 µM): 0.895
relative viability (1.265 µM): 1.16
relative viability (4 µM): 0.915

NCI-H1651
relative viability (0.04 µM): 1.08
relative viability (0.4 µM): 0.907
relative viability (1.265 µM): 1
relative viability (4 µM): 0.967

NCI-H1666
relative viability (0.04 µM): 1.01
relative viability (0.4 µM): 1.01
relative viability (1.265 µM): 0.967
relative viability (4 µM): 1.04

NCI-H1703
relative viability (0.04 µM): 1.2
relative viability (0.4 µM): 0.997
relative viability (1.265 µM): 0.996
relative viability (4 µM): 0.768

NCI-H1734
relative viability (0.04 µM): 1.12
relative viability (0.4 µM): 0.865
relative viability (1.265 µM): 1.03
relative viability (4 µM): 0.963

NCI-H1755
relative viability (0.04 µM): 1.04
relative viability (0.4 µM): 0.988
relative viability (1.265 µM): 0.985
relative viability (4 µM): 0.956

NCI-H1792
relative viability (0.04 µM): 1.03
relative viability (0.4 µM): 0.836
relative viability (1.265 µM): 0.883
relative viability (4 µM): 1.18

NCI-H1793
relative viability (0.04 µM): 0.771
relative viability (0.4 µM): 0.735
relative viability (1.265 µM): 1.1
relative viability (4 µM): 0.845

NCI-H1915
relative viability (0.04 µM): 1.09
relative viability (0.4 µM): 0.956
relative viability (1.265 µM): 1.1
relative viability (4 µM): 0.976

NCI-H1944
relative viability (0.04 µM): 0.954
relative viability (0.4 µM): 0.921
relative viability (1.265 µM): 1.03
relative viability (4 µM): 1.01

NCI-H1975
relative viability (0.04 µM): 0.996
relative viability (0.4 µM): 0.938
relative viability (1.265 µM): 1.01
relative viability (4 µM): 0.915

NCI-H1993
relative viability (0.04 µM): 0.943
relative viability (0.4 µM): 0.982
relative viability (1.265 µM): 1.08
relative viability (4 µM): 0.916

NCI-H2009
relative viability (0.04 µM): 1.12
relative viability (0.4 µM): 0.942
relative viability (1.265 µM): 1.02
relative viability (4 µM): 1

NCI-H2023
relative viability (0.04 µM): 1.15
relative viability (0.4 µM): 0.921
relative viability (1.265 µM): 1.01
relative viability (4 µM): 0.944

NCI-H2085
relative viability (0.04 µM): 0.719
relative viability (0.4 µM): 0.989
relative viability (1.265 µM): 1.07
relative viability (4 µM): 0.98

NCI-H2087
relative viability (0.04 µM): 1.15
relative viability (0.4 µM): 0.99
relative viability (1.265 µM): 1.04
relative viability (4 µM): 1.11

NCI-H2126
relative viability (0.04 µM): 0.996
relative viability (0.4 µM): 0.974
relative viability (1.265 µM): 1.03
relative viability (4 µM): 0.988

NCI-H2170
relative viability (0.04 µM): 1.1
relative viability (0.4 µM): 0.948
relative viability (1.265 µM): 1.02
relative viability (4 µM): 0.928

NCI-H2228
relative viability (0.04 µM): 1.16
relative viability (0.4 µM): 0.945
relative viability (1.265 µM): 1.04
relative viability (4 µM): 0.918

NCI-H2342
relative viability (0.04 µM): 0.851
relative viability (0.4 µM): 0.878
relative viability (1.265 µM): 1.03
relative viability (4 µM): 1.02

NCI-H2347
relative viability (0.04 µM): 0.865
relative viability (0.4 µM): 0.996
relative viability (1.265 µM): 1.06
relative viability (4 µM): 0.989

NCI-H2405
relative viability (0.04 µM): 1
relative viability (0.4 µM): 0.982
relative viability (1.265 µM): 1.11
relative viability (4 µM): 1

NCI-H3122
relative viability (0.04 µM): 1.01
relative viability (0.4 µM): 0.955
relative viability (1.265 µM): 1.01
relative viability (4 µM): 0.98

PC-3 [JPC-3]
relative viability (0.04 µM): 1.04
relative viability (0.4 µM): 0.978
relative viability (1.265 µM): 1.1
relative viability (4 µM): 1.01

PC-14
relative viability (0.04 µM): 1.24
relative viability (0.4 µM): 0.974
relative viability (1.265 µM): 1.07
relative viability (4 µM): 0.936

RERF-LC-KJ
relative viability (0.04 µM): 1.05
relative viability (0.4 µM): 0.981
relative viability (1.265 µM): 1.02
relative viability (4 µM): 0.988

SK-LU-1
relative viability (0.04 µM): 1.11
relative viability (0.4 µM): 0.982
relative viability (1.265 µM): 1.15
relative viability (4 µM): 1.02

SK-MES-1
relative viability (0.04 µM): 1.1
relative viability (0.4 µM): 0.982
relative viability (1.265 µM): 1.07
relative viability (4 µM): 0.939

SW 900
relative viability (0.04 µM): 1.08
relative viability (0.4 µM): 0.698
relative viability (1.265 µM): 0.958
relative viability (4 µM): 0.882

SW 1573
relative viability (0.04 µM): 1.15
relative viability (0.4 µM): 0.926
relative viability (1.265 µM): 1.08
relative viability (4 µM): 1.02

UMC-11
relative viability (0.04 µM): 1.12
relative viability (0.4 µM): 0.951
relative viability (1.265 µM): 1.08
relative viability (4 µM): 0.976
